Experimental data published in BindingDB's records for PubMed 995128 (1976).
Several values for one entry are separate records, joined by “and”; a condition that tells them apart may be missing. Identical values can stand only once. Counter-ions that a name gives are not always drawn.

How the values were obtained:
[1] = target: D(1A) dopamine receptor (Bos taurus, UniProt Q95136)
[2] = target: D(2) dopamine receptor (Bos taurus, UniProt P20288)
Sequence of D(2) dopamine receptor (P20288 whole entry): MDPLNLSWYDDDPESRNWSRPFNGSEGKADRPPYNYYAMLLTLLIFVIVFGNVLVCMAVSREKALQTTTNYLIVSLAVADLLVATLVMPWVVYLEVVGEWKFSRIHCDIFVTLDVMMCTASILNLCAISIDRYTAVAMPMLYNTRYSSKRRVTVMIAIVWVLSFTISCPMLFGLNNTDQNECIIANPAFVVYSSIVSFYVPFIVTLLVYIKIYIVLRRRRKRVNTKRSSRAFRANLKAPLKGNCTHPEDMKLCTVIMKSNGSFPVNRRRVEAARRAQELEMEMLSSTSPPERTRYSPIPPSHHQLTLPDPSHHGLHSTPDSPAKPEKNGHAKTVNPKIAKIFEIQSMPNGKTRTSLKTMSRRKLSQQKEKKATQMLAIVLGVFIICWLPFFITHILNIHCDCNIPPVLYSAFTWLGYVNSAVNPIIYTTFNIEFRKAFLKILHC

Sequence of D(1A) dopamine receptor (Q95136 whole entry): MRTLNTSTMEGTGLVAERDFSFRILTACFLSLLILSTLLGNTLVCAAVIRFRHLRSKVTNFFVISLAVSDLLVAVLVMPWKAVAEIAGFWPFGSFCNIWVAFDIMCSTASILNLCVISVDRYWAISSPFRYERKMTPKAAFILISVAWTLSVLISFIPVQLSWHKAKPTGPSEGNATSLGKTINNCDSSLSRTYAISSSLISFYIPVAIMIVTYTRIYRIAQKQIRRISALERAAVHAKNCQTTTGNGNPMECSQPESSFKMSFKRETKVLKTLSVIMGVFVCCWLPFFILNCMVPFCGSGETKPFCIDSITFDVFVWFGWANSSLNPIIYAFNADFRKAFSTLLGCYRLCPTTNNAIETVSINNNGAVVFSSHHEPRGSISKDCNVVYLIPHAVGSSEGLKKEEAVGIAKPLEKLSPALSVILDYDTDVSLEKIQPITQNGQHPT

Molecule `O=C1NCN(c2ccccc2)C12CCN(CCCC(c1ccc(F)cc1)c1ccc(F)cc1)CC2` has a Ki [1] of 1400 nM and a Ki [2] of 0.6 nM.

For `CN(C)CCCN1c2ccccc2CCc2ccccc21`, the Ki [1] was greater than 10000 nM and the Ki [2] was 180 nM.

Molecule `CC(COc1ccccc1)N(CCCl)Cc1ccccc1` (configuration not stated) has a Ki [1] greater than 10000 nM and a Ki [2] of 140 nM.

Molecule `CC[C@@H](CO)NC(=O)[C@@H]1C=C2c3cccc4c3c(cn4C)C[C@H]2N(C)C1` has a Ki [1] of 290 nM and a Ki [2] of 160 nM.

`CN(C)CC/C=C1\c2ccccc2Sc2ccc(Cl)cc21` gave a Ki [1] of 250 nM and a Ki [2] of 4.4 nM.

For `NCCc1ccc(O)c(O)c1`, the Ki [1] was 17.5 nM and 16.8 nM and 11.7 nM.

`CN(C)CCCN1c2ccccc2Sc2ccccc21` gave a Ki [1] of 7100 nM and a Ki [2] of 72 nM.

`CN1CCN(CCCN2c3ccccc3Sc3ccc(C(F)(F)F)cc32)CC1` gave a Ki [1] of 740 nM and a Ki [2] of 2.1 nM.

For `NC1CCc2cc(O)c(O)cc2C1` (configuration not stated), the Ki [1] was 11 nM and the Ki [2] was 120 nM.

In the case of `CN1C2CCC1CC(OC(c1ccccc1)c1ccccc1)C2` (configuration not stated), the Ki [1] is reported as greater than 10000 nM and the Ki [2] is reported as 230 nM.

In the case of `O=c1[nH]c2ccccc2n1C1CCN(CCCC(c2ccc(F)cc2)c2ccc(F)cc2)CC1` [1-(1-(4,4-bis(4-fluorophenyl)butyl)piperidin-4-yl)-1H-benzo[d]imidazol-2(3H)-one], the Ki [1] is reported as 5300 nM and 7600 nM and 6800 nM and the Ki [2] is reported as 0.81 nM and 0.6 nM.

Molecule `O=C(CCCN1CC=C(n2c(=O)[nH]c3ccccc32)CC1)c1ccc(F)cc1` [1-(1-(4-(4-fluorophenyl)-4-oxobutyl)-1,2,3,6-tetrahydropyridin-4-yl)-1H-benzo[d]imidazol-2(3H)-one] has a Ki [1] of 880 nM and a Ki [2] of 1 nM.

With `O=C(CCCN1CCN(c2ccccn2)CC1)c1ccc(F)cc1` [1-(4-Fluoro-phenyl)-4-(4-pyridin-2-yl-piperazin-1-yl)-butan-1-one(Azaperone)] the Ki [1] was 1700 nM and the Ki [2] was 10 nM.

`OCCN1CCN(CCCN2c3ccccc3Sc3ccc(C(F)(F)F)cc32)CC1` [2-[4-[3-[2-(trifluoromethyl)phenothiazin-10-yl]propyl]piperazin-1-yl]ethanol;hydrochloride] was tested, and the Ki [2] was 0.88 nM and 0.6 nM and 0.3 nM and 0.8 nM.

`OCCN1CCN(CC/C=C2/c3ccccc3Sc3ccc(Cl)cc32)CC1` [2-[4-[(3Z)-3-(2-chloro-9-thioxanthenylidene)propyl]-1-piperazinyl]ethanol;hydrochloride] was tested, and the Ki [1] was 480 nM and the Ki [2] was 3.1 nM.

`O=C(CCCN1CCC(O)(c2ccc(Cl)cc2)CC1)c1ccc(F)cc1` [4-[4-(4-Chloro-phenyl)-4-hydroxy-piperidin-1-yl]-1-(4-fluoro-phenyl)-butan-1-one;propionate(HCl)] was tested, and the Ki [1] was 920 nM and 1060 nM and 1100 nM.

For `CN1CCC(=C2c3ccccc3C=Cc3ccccc32)CC1` [5-(1-methylpiperidylidene-4)-5H-dibenzo(a,d)cyclopheptene], the Ki [1] was 1200 nM and the Ki [2] was 65 nM.

`CSc1ccc2c(c1)N(CC[C@@H]1CCCCN1C)c1ccccc1S2` [10-[2-(1-Methyl-piperidin-2-yl)-ethyl]-2-methylsulfanyl-10H-phenothiazine (thioridazine)] was tested, and the Ki [1] was 1800 nM and 1780 nM and 1810 nM.

Work on `CN1C[C@H](C(=O)N[C@]2(C)O[C@@]3(O)[C@@H]4CCCN4C(=O)[C@H](Cc4ccccc4)N3C2=O)C=C2c3cccc4[nH]cc(c34)C[C@H]21` [12'-hydroxy-2'-methyl-5'alpha-(phenylmethyl)ergotaman-3',6',18-trione] yielded a Ki [1] of 30 nM and a Ki [2] of 1.8 nM.

`COc1ccc2c(c1O)-c1c3c(cc4c1[C@H](C2)N(C)CC4)OCO3` [(S)-11-methoxy-7-methyl-6,7,7a,8-tetrahydro-5H-benzo[g][1,3]dioxolo[4',5':4,5]benzo[1,2,3-de]quinolin-12-ol] showed a Ki [1] of 800 nM and a Ki [2] of 930 nM.

Molecule `CC(C)C[C@H]1C(=O)N2CCCC2[C@]2(O)O[C@](NC(=O)[C@@H]3C=C4c5cccc6[nH]cc(c56)CC4N(C)C3)(C(C)C)C(=O)N12` (stereo partly drawn) [ALPHA-ERGOCRYPTINE] has a Ki [1] of 69 nM and a Ki [2] of 1.3 nM.

`O=C(CCCN1CCC(O)(c2ccc(Br)cc2)CC1)c1ccc(F)cc1` [BROMPERIDOL] showed a Ki [1] of 600 nM and a Ki [2] of 1.4 nM.

`CC(C)C[C@H]1C(=O)N2CCC[C@H]2[C@]2(O)O[C@](NC(=O)[C@@H]3C=C4c5cccc6[nH]c(Br)c(c56)C[C@H]4N(C)C3)(C(C)C)C(=O)N12` [Bromocriptine+ (GTP+)] showed a Ki [2] of 2.5 nM.

In the case of `CC(C)NC(=O)C1C=C2c3cccc4[nH]cc(c34)CC2N(C)C1` (configuration not stated) [CAS_60-79-7], the Ki [1] is reported as 61 nM.
